Measurements taken from patent US12116357B2, “Heteroaryl-triazole and heteroaryl-tetrazole compounds as pesticides” (Bayer Aktiengesellschaft, priority 2018, dated 2024).

Legend:
Assay type in all cases: in vivo
[1] = system: Anopheles funestus strain FUMOZ-R; assay: Anopheles funestus test (surface treatment & contact assay); details: 24 hours after contact, read-out: efficacy (mortality); for mortality at 4 mg/m2: surface concentration 4 mg/m^2, 30 min exposure; for mortality at 20 mg/m2: surface concentration 20 mg/m^2, 30 min exposure
Experimental: (§1) • Solvent: Aceton+2000 ppm rapeseed oil methyl ester (RME)
(§2) In order to produce a sufficient, active ingredient containing solution it is necessary to solve the test compound in the solvent-mix (acetone at 2 mg/ml/RME 2000 ppm). This solution is pipetted onto a glazed tile and after evaporation of the acetone, adult mosquitoes of the species Anopheles funestus strain FUMOZ-R (Hunt et al., Med. Vet. Entomol. 2005 September; 19(3): 271-275) are placed onto the dried surface. The exposure time is 30 minutes.
(§3) Mortality in percent (%) is determined 24 hours after contact of the insects to the treated surface. 100% mortality means that all tested insects are dead, whereas 0% means that no insect died.

[2] = system: Ctenocephalides felis; assay: Ctenocephalides felis oral test; details: 48 h, 100 ppm in cattle blood, after 2 days
Experimental: (§4) • Solvent: dimethyl sulfoxide
To produce a suitable preparation of active compound, 10 mg of active compound are dissolved in 0.5 ml solvent, and the concentrate is diluted with cattle blood to the desired concentration.
Approximately 20 adult unfed cat fleas (Ctenocephalides felis) are placed in flea chambers. The blood chamber, sealed with parafilm on the bottom, are filled with cattle blood supplied with compound solution and placed on the gauze covered top of the flea chamber, so that the fleas are able to suck the blood. The blood chamber is heated to 37° C. whereas the flea chamber is kept at room temperature.
After 2 days mortality in % is determined. 100% means all the fleas have been killed; 0% means none of the fleas have been killed.

[3] = system: Nezara viridula; assay: Nezara viridula spray test; details: 96 h
Experimental: (§5) • Solvent: 78.0 parts by weight of acetone • 1.5 parts by weight of dimethylformamide • Emulsifier: alkylarylpolyglycol ether
(§6) To produce a suitable preparation of active compound, 1 part by weight of active compound is mixed with the stated amount of solvent, and the concentrate is diluted with water, containing an emulsifier concentration of 1000 ppm, to the desired concentration. Further test concentrations are prepared by dilution with emulsifier containing water.
Barley plants (Hordeum vulgare) infested with larvae of the southern green stink bug (Nezara viridula) are sprayed with a test solution containing the desired concentration of the active ingredient.
After 4 days mortality in % is determined. 100% means all the stink bugs have been killed; 0% means none of the stink bugs have been killed.

[4] = system: Tetranychus urticae (OP-Resistant); assay: Tetranychus urticae (OP-resistant) spray test; details: 144 h, after 6 days
Experimental: (§7) • Solvent: 78.0 parts by weight acetone • 1.5 parts by weight dimethylformamide • Emulsifier: alkylarylpolyglycol ether
as §6, with “solvents” for “solvent,”, “and” for “and the concentrate”
French bean (Phaseolus vulgaris) leaf disks infected with all instars of the two spotted spidermite (Tetranychus urticae), are sprayed with a preparation of the active ingredient of the desired concentration.
After 6 days mortality in % is determined. 100% means all spider mites have been killed and 0% means none of the spider mites have been killed.

[5] = system: Rhipicephalus sanguineus; assay: Rhipicephalus sanguineus in-vitro contact test, adult brown dog ticks
Experimental: (§8) 9 mg compound is solved in 1 ml acetone and diluted with acetone to the desired concentration. 250 μl of the test solution is filled in 25 ml glass test tubes and homogeneously distributed on the inner walls by rotation and tilting on a shaking device (2 h at 30 rpm). With a compound concentration of 900 ppm, an inner surface of 44.7 cm^2 and a homogeneous distribution, a dose of 5 μg/cm^2 is achieved.
(§9) After the solvent has evaporated, each test tube is filled with 5-10 adult brown dog ticks (Rhipicephalus sanguineus), closed with a perforated lid and incubated in a lying position at room temperature and relative humidity. After 48 hours efficacy is determined. The ticks are patted on the ground of the tubes and are incubated on a heating plate at 45-50° C. for at most 5 minutes. Immotile or uncoordinated moving ticks, which are not able to escape the heat by climbing upwards, are marked as dead or moribund.
An efficacy of 100% means all ticks are dead or moribund; 0% means no ticks are dead or moribund.

[6] = system: Boophilus microplus; assay: Boophilus microplus injection test; details: Rhipicephalus microplus, 168 h, 20 μg/animal, egg deposition after 7 days, read-out: efficacy (infertile eggs)
Experimental: as §4
To produce a suitable preparation of active compound, 10 mg of active compound are dissolved in 0.5 ml solvent, and the concentrate is diluted with solvent to the desired concentration.
Five adult engorged female ticks (Boophilus microplus) are injected with 1 μl compound solution into the abdomen. The ticks are transferred into replica plates and incubated in a climate chamber.
After 7 days egg deposition of fertile eggs is monitored. Eggs where fertility is not visible are stored in a climate chamber till hatching after about 42 days. An efficacy of 100% means all eggs are infertile; 0% means all eggs are fertile.

[7] = system: Myzus persicae; assay: Myzus persicae oral test; details: 120 h
Experimental: • Solvent: 100 parts by weight acetone
To produce a suitable preparation of active compound, 1 part by weight of active compound is mixed with the stated amount of solvent, and the concentrate is diluted with water to the desired concentration. 50 μl compound solution is filled in microtiter plates and 150 μl IPL41 insect medium (33%+15% sugar) is added to obtain a total volume of 200 μl per well. Afterwards the plates are sealed with parafilm through which a mixed population of the green peach aphid (Myzus persicae) can suck on the compound preparation.
(§10) After 5 days mortality in % is determined. 100% means all aphids have been killed and 0% means none of the aphids have been killed.

[8] = system: Phaedon cochleariae; assay: Phaedon cochleariae spray test; details: 168 h, after 7 days
Experimental: as §5
as §6, with “solvents” for “solvent,”, “and” for “and the concentrate”
Chinese cabbage (Brassica pekinensis) leaf disks are sprayed with a preparation of the active ingredient of the desired concentration. Once dry, the leaf disks are infested with mustard beetle larvae (Phaedon cochleariae).
After 7 days mortality in % is determined. 100% means all beetle larvae have been killed and 0% means none of the beetle larvae have been killed.

[9] = system: Ctenocephalides felis; assay: Ctenocephalides felis in-vitro contact test, adult cat flea; details: 5 μg/cm^2, after 48 hours, read-out: efficacy (fleas dead or moribund)
Experimental: as §8
as §9, with “cat fleas (Ctenocephalides felis),” for “brown dog ticks (Rhipicephalus sanguineus),”, “fleas” for “ticks”, “fleas,” for “ticks,”
An efficacy of 100% means all fleas are dead or moribund; 0% means no fleas are dead or moribund.

[10] = system: Aedes aegypti strain MONHEIM; assay: Aedes aegypti test (surface treatment & contact assay); details: 24 hours after contact, read-out: efficacy (mortality); for mortality at 20 mg/m2: surface concentration 20 mg/m^2, 30 min exposure; for mortality at 4 mg/m2: surface concentration 4 mg/m^2, 30 min exposure
Experimental: as §1
as §2, with “Aedes aegypti” for “Anopheles funestus”, “MONHEIM” for “FUMOZ-R (Hunt et al., Med. Vet. Entomol. 2005 September; 19(3): 271-275)”
as §3

[11] = system: Spodoptera frugiperda; assay: Spodoptera frugiperda spray test; details: 168 h
Experimental: as §7
as §6, with “solvents” for “solvent,”, “and” for “and the concentrate”
Maize (Zea mays) leaf sections are sprayed with a preparation of the active ingredient of the desired concentration. Once dry, the leaf sections are infested with fall armyworm larvae (Spodoptera frugiperda).
After 7 days mortality in % is determined. 100% means all caterpillars have been killed and 0% means none of the caterpillars have been killed.

[12] = system: Myzus persicae; assay: Myzus persicae spray test; details: 120 h
Experimental: as §7
as §6, with “solvents” for “solvent,”, “and” for “and the concentrate”
Chinese cabbage (Brassica pekinensis) leaf disks infected with all instars of the green peach aphid (Myzus persicae), are sprayed with a preparation of the active ingredient of the desired concentration.
as §10

[13] = system: Culex quinquefasciatus strain P00; assay: Culex quinquefasciatus test (surface treatment & contact assay); details: 24 hours after contact, read-out: efficacy (mortality); for mortality at 4 mg/m2: surface concentration 4 mg/m^2, 30 min exposure; for mortality at 20 mg/m2: surface concentration 20 mg/m^2, 30 min exposure
Experimental: as §1
as §2, with “Culex quinquefasciatus” for “Anopheles funestus”, “P00” for “FUMOZ-R (Hunt et al., Med. Vet. Entomol. 2005 September; 19(3): 271-275)”
as §3

[14] = system: Musca domestica strain WHO-N; assay: Musca domestica test (surface treatment & contact assay); details: 24 hours after contact, read-out: efficacy (mortality); for mortality at 4 mg/m2: surface concentration 4 mg/m^2, 30 min exposure; for mortality at 20 mg/m2: surface concentration 20 mg/m^2, 30 min exposure
Experimental: as §1
as §2, with “flies” for “mosquitoes”, “Musca domestica” for “Anopheles funestus”, “WHO-N” for “FUMOZ-R (Hunt et al., Med. Vet. Entomol. 2005 September; 19(3): 271-275)”
as §3

[15] = system: Nilaparvata lugens; assay: Nilaparvata lugens spray test; details: 96 h
Experimental: as §5
as §6, with “solvents” for “solvent,”, “and” for “and the concentrate”
Rice plants (Oryza sativa) are sprayed with a preparation of the active ingredient of the desired concentration and the plants are infested with the brown planthopper (Nilaparvata lugens).
After 4 days mortality in % is determined. 100% means all planthoppers have been killed and 0% means none of the planthoppers have been killed.

Structure (SMILES) | mortality at 20 mg/m2 [1] [%] | mortality at 100 ppm [2] [%] | mortality at 500 g/ha [3] [%] | mortality at 500 g/ha [4] [%] | efficacy (ticks dead or moribund) ([5]; 1 μg/cm^2, after 48 hours) [%] | pest or weed control at 0.02 mg [6] [%] | mortality at 4 ppm [7] [%] | mortality at 20 ppm [7] [%] | mortality at 500 g/ha [8] [%] | pest or weed control at 5 µg/cm2 [9] [%] | mortality at 20 mg/m2 [10] [%] | mortality at 500 g/ha [11] [%] | mortality at 500 g/ha [12] [%] | mortality at 20 mg/m2 [13] [%] | mortality at 4 mg/m2 [14] [%] | mortality at 20 mg/m2 [14] [%] | mortality at 4 mg/m2 [10] [%] | efficacy (ticks dead or moribund) ([5]; 5 μg/cm^2, after 48 hours) [%] | mortality at 500 g/ha [15] [%] | also measured
CCON(C(=O)c1cc(Cl)cc(C(F)(F)F)c1)C(C)c1ncnn1-c1ncccn1 (stereo not drawn) [Example I-027] | 85 to 100 | 100 | 100 | 80 | 100 | 100 | 100 | 100 | 100 | 100 | – | – | – | – | – | – | – | – | – | mortality at 4 mg/m2 [1]: 85 to 100%
CSCCN(C(=O)c1cc(C(F)(F)F)cc(C(F)(F)F)c1)C(C)c1ncnn1-c1ccc(C#N)cn1 (stereo not drawn) [Example I-034] | 85 to 100 | – | 100 | – | – | – | 100 | – | – | 100 | 90 to 100 | 100 | 100 | 90 to 100 | 90 to 100 | 90 to 100 | – | – | – | mortality at 4 mg/m2 [13]: 85 to 100%
CSCCN(C(=O)c1cc(Cl)cc(C(F)(F)F)c1)C(C)c1ncnn1-c1ncccn1 (stereo not drawn) [Example I-017] | 85 to 100 | 100 | 100 | – | 80 | 100 | 100 | 100 | 100 | 100 | 90 to 100 | 100 | – | 90 to 100 | 90 to 100 | 90 to 100 | 80 to 100 | 100 | 100 | mortality at 4 mg/m2 [1]: 85 to 100%; mortality at 4 mg/m2 [13]: 85 to 100%
CSCCN(C(=O)c1cc(Cl)cc(C(F)(F)F)c1)C(C)c1ncnn1-c1ccc(C#N)cn1 (stereo not drawn) [Example I-033] | 85 to 100 | – | 100 | – | – | – | 100 | – | – | 100 | 90 to 100 | 100 | 90 | 90 to 100 | 90 to 100 | 90 to 100 | 80 to 100 | – | – | –
CON(C(=O)c1cccc(C(F)(F)F)c1)C(C)c1ncnn1-c1ncccn1 (stereo not drawn) [Example I-028] | – | – | 100 | – | 80 | 100 | – | – | – | – | – | – | – | – | – | – | – | 100 | 100 | –
CCOCN(C(=O)c1cc(Cl)cc(C(F)(F)F)c1)C(C)c1ncnn1-c1ncccn1 (stereo not drawn) [Example I-013, 3-Chloro-N-(ethoxymethyl)-N-{1-[1-(pyrimidin-2-yl)-1H-1,2,4-triazol-5-yl]ethyl}-5-(trifluoromethyl)benzamide] | – | 100 | – | 80 | 100 | 100 | 100 | 100 | 100 | 100 | – | 100 | – | – | – | – | – | 100 | 100 | –
CON(C(=O)c1cc(Cl)cc(C(F)(F)F)c1)C(C)c1ncnn1-c1ncccn1 (stereo not drawn) [Example I-026] | – | 100 | 100 | 90 | – | 100 | 100 | 100 | 100 | – | – | 100 | – | – | – | – | – | – | – | –
CC(c1ncnn1-c1ncccn1)N(Cc1ccc(Cl)nc1)C(=O)c1cc(Cl)cc(C(F)(F)F)c1 (stereo not drawn) [Example I-030] | 85 to 100 | 100 | 100 | – | – | 100 | 100 | – | – | 90 | 90 to 100 | 100 | 100 | 90 to 100 | 90 to 100 | 90 to 100 | 80 to 100 | – | 100 | –
